Measured values published in patent US9212168B2 (priority 2011, dated 2015).

Columns and labels:
HCV genotype 1b replicon = HCV genotype 1b replicon assay (Renilla luciferase readout); format: cell-based, hepatitis C virus; conditions: for Genotype 1b: HCV genotype 1b replicon; for EC50: Hepatitis C virus, read-out: Genotype 1b
Method in brief: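 Huh7-derived APC144 subgenomic replicon cells carrying Renilla luciferase–NS3-NS5B, seeded 10,000/well without G418, then treated with compound dose-responses for 48 h at 37 °C (0.5% DMSO final). Luciferase signal fitted by 4-parameter model to EC50, reported as pEC50.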

HCV genotype 1a replicon = HCV genotype 1a replicon assay (NS3 protease activity readout); format: cell-based, hepatitis C virus; conditions: for Genotype 1a: HCV genotype 1a replicon; for EC50: Hepatitis C virus, read-out: Genotype 1a, HCV genotype 1a replicon
Method in brief: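 Genotype 1a subgenomic replicon cells (APC89, Huh7.5) were treated with compound dose-responses in G418-free medium, 0.5% DMSO final, for 48 or 72 hours at 37° C. Lysate NS3/4a protease activity measured with 15 μM FRET substrate, 20 min at 37° C (ex 340/em 509 nm); EC50 by 4-parameter fit.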

SMILES	Genotype 1b (HCV genotype 1b replicon)	Genotype 1a (HCV genotype 1a replicon)	EC50 (HCV genotype 1b replicon)	EC50 (HCV genotype 1a replicon)
COC(=O)NC(C(=O)N1CC(OC)CC1c1nc(-c2ccc(-c3cc(F)c(NC(=O)c4ccc(N5CCN(C(=O)C(C)(C)C)CC5C)nc4)cc3OC(F)(F)F)cc2)c[nH]1)C(C)O (centres unmarked) [Example 16-4]	D (D represents pEC50>10 (EC50<0.1 nM))	D (D represents pEC50>10 (EC50<0.1 nM))		
COC(=O)N[C@H](C(=O)N1C[C@@H](C)C[C@H]1c1nc(-c2ccc(-c3cc(F)c(NC(=O)c4ccc(N5C[C@H](C)N(C(=O)[C@H]6CC6(C)C)C[C@H]5C)nc4)cc3OC(F)(F)F)cc2)c[nH]1)C(C)C [Example 1-13]	D (D represents pEC50>10 (EC50<0.1 nM))	D (D represents pEC50>10 (EC50<0.1 nM))		
COC(=O)N[C@H](C(=O)N1C[C@@H](C)C[C@H]1c1nc(-c2ccc(-c3cc(Cl)c(NC(=O)c4ccc(N5C[C@H](C)N(C(=O)[C@H]6CC6(C)C)C[C@H]5C)nc4)cc3C(F)(F)F)cc2)c[nH]1)C(C)C [Example 1-11]	D (D represents pEC50>10 (EC50<0.1 nM))	D (D represents pEC50>10 (EC50<0.1 nM))		
COC(=O)N[C@H](C(=O)N1C[C@@H](OC)C[C@H]1c1nc(-c2ccc(-c3cc(Cl)c(NC(=O)c4ccc(N5C[C@H](C)N(C(=O)[C@]6(C)CCCN6C(=O)CN(C)C)C[C@H]5C)nc4)cc3OC(F)(F)F)cc2)c[nH]1)C1CCOCC1 [Example 28-19]	D (D represents pEC50>10 (EC50<0.1 nM))	C (C represents pEC50 between and 9 and about 10, (EC50 between 1 nM and 0.1 nM))		
COC[C@H]1CN(c2ccc(NC(=O)c3cc(OC(F)(F)F)c(-c4ccc(-c5c[nH]c([C@@H]6C[C@H](C)CN6C(=O)[C@@H](NC(=O)OC)C6CCOCC6)n5)cc4)cc3Cl)cn2)CCN1C(=O)C(C)(C)C [24-4]	D (D represents pEC50>10 (EC50<0.1 nM))	C (C represents pEC50 between and 9 and about 10, (EC50 between 1 nM and 0.1 nM))		
COC(=O)N[C@H](C(=O)N1C[C@@H](C)C[C@H]1c1nc(-c2ccc(-c3ccc(C(=O)Nc4ccc(N5C[C@H](C)N(C(=O)[C@H]6CC6(C)C)C[C@H]5C)nc4)cc3OC(F)(F)F)cc2)c(Cl)[nH]1)C(C)C [Example 4-10]	D (D represents pEC50>10 (EC50<0.1 nM))	D (D represents pEC50>10 (EC50<0.1 nM))		
COC(=O)NC(C(=O)N1CC(C)CC1c1nc(-c2ccc(-c3ccc(NC(=O)c4ccc(N5CCN(C(=O)C(C)(C)C)CC5C)nc4)cc3OC(F)(F)F)cc2)c[nH]1)C1CCOCC1 (centres unmarked) [Example 13-12]	D (D represents pEC50>10 (EC50<0.1 nM))	D (D represents pEC50>10 (EC50<0.1 nM))		
CNC(=O)N1CCN(c2ccc(NC(=O)c3ccc(-c4ccc(-c5c[nH]c([C@@H]6C[C@@H]7CCCC[C@@H]7N6C(=O)[C@@H](NC(=O)OC)C(C)C)n5)cc4)c(OC(F)(F)F)c3)cn2)[C@H](C)C1 [Example 6-11]			< 0.1 nM	0.1 to 1 nM
COC(=O)N[C@H](C(=O)N1C[C@@H](OC)C[C@H]1c1nc(-c2ccc(-c3ccc(NC(=O)c4ccc(N5CCN(C(=O)C(C)(C)C)C[C@H]5C)nc4)cc3OC(F)(F)F)cc2)c[nH]1)C(C)C [Example 27-8]	D (D represents pEC50>10 (EC50<0.1 nM))	D (D represents pEC50>10 (EC50<0.1 nM))		
COC(=O)N[C@H](C(=O)N1C[C@@H](C)C[C@H]1c1nc(-c2ccc(-c3cc(F)c(NC(=O)c4ccc(N5C[C@H](C)N(C(=O)[C@H]6CC6(C)C)C[C@H]5C)nc4)cc3C(F)(F)F)cc2)c[nH]1)C(C)C [Example 1-7]	D (D represents pEC50>10 (EC50<0.1 nM))	D (D represents pEC50>10 (EC50<0.1 nM))		
COC(=O)N[C@H](C(=O)N1C[C@@H](C)C[C@H]1c1nc(-c2ccc(-c3cc(Cl)c(NC(=O)c4ccc(N5CCN(C(=O)C(C)(C)C)C[C@H]5C)nc4)cc3OC(F)(F)F)cc2)c[nH]1)C1C[C@@H](C)O[C@@H](C)C1 (some centres unmarked) [Example 13-42]			< 0.1 nM	< 0.1 nM
COC(=O)N[C@H](C(=O)N1C[C@@H](C)C[C@H]1c1nc(-c2ccc(-c3cc(Cl)c(NC(=O)c4ccc(N5CCN(C(=O)C67CC(CO)(C6)C7)C[C@H]5C)nc4)cc3OC(F)(F)F)cc2)c[nH]1)C(C)C [Example 12-50]			< 0.1 nM	< 0.1 nM
CCC(=O)N1CCC[C@@H]1C(=O)N1C[C@@H](C)N(c2ccc(NC(=O)c3ccc(-c4ccc(-c5c[nH]c([C@@H]6C[C@H](C)CN6C(=O)[C@@H](NC(=O)OC)C(C)C)n5)cc4)c(OC(F)(F)F)c3)cn2)C[C@@H]1C [Example 4-21]	D (D represents pEC50>10 (EC50<0.1 nM))	D (D represents pEC50>10 (EC50<0.1 nM))		
COC(=O)N[C@H](C(=O)N1C[C@@H](C)C[C@H]1c1nc(-c2ccc(-c3cc(Cl)c(NC(=O)c4ccc(N5CCN(C(=O)C(C)(C)C)C[C@H]5C)nc4)cc3OC(F)(F)F)cc2)c(CO)[nH]1)C1CCOCC1 [Example 20-2]	D (D represents pEC50>10 (EC50<0.1 nM))	D (D represents pEC50>10 (EC50<0.1 nM))		
COC(=O)NC(C(=O)N1C[C@@H](C)C[C@H]1c1nc(-c2ccc(-c3cc(Cl)c(NC(=O)c4ccc(N5CCN(C(=O)C(C)(C)C)C[C@H]5C)nc4)cc3C(F)(F)F)cc2)c[nH]1)C1CCS(=O)(=O)CC1 (single isomer, unassigned) [Example 19-6]	D (D represents pEC50>10 (EC50<0.1 nM))	D (D represents pEC50>10 (EC50<0.1 nM))		
COC(=O)N[C@H](C(=O)N1C[C@@H](C)C[C@H]1c1nc(-c2ccc(-c3cc(F)c(NC(=O)c4ccc(N5CCN(C(=O)C(C)(C)C)C[C@H]5C)nc4)cc3OC(F)(F)F)cc2)c[nH]1)[C@H](C)OC [Example 13-21]			< 0.1 nM	< 0.1 nM
COC(=O)N[C@H](C(=O)N1C[C@@H](C)C[C@H]1c1nc(-c2ccc(-c3ccc(C(=O)Nc4ccc(N5CCN(C(=O)C(C)(C)C)C[C@H]5C)nc4)cc3OC(F)(F)F)cc2)c(Cl)[nH]1)C1CCOCC1 [Example 22-6]	D (D represents pEC50>10 (EC50<0.1 nM))	D (D represents pEC50>10 (EC50<0.1 nM))		
COC(=O)N[C@H](C(=O)N1C[C@@H](OC)C[C@H]1c1nc(-c2ccc(-c3cc(Cl)c(NC(=O)c4ccc(N5C[C@H](C)N(C(=O)[C@]6(C)CCCN6C(=O)OC)C[C@H]5C)nc4)cc3OC(F)(F)F)cc2)c[nH]1)C1CCOCC1 [Example 28-18]	D (D represents pEC50>10 (EC50<0.1 nM))	D (D represents pEC50>10 (EC50<0.1 nM))		
COC(=O)N[C@H](C(=O)N1C[C@@H](C#N)C[C@H]1c1nc(-c2ccc(-c3cc(Cl)c(NC(=O)c4ccc(N5CCN(C(=O)C(C)(C)CO)C[C@H]5C)nc4)cc3OC(F)(F)F)cc2)c[nH]1)C(C)C [Example 15-12]			< 0.1 nM	< 0.1 nM
COCC(=O)N1CCC[C@@]1(C)C(=O)N1CCN(c2ccc(NC(=O)c3ccc(-c4ccc(-c5c[nH]c([C@@H]6C[C@H](SC)CN6C(=O)[C@@H](NC(=O)OC)C(C)C)n5)cc4)c(OC(F)(F)F)c3)cn2)[C@H](C)C1 [Example 6-10]			< 0.1 nM	< 0.1 nM
COC(=O)N[C@H](C(=O)N1[C@@H](C)CC[C@H]1c1nc(-c2ccc(-c3cc(Cl)c(NC(=O)c4ccc(N5CCN(C(=O)C(C)(C)C)C[C@H]5C)nc4)cc3OC(F)(F)F)cc2)c[nH]1)C(C)C [Example 17-3]	D (D represents pEC50>10 (EC50<0.1 nM))	D (D represents pEC50>10 (EC50<0.1 nM))		
CNC(=O)N1C[C@@H](C)N(c2ccc(NC(=O)c3ccc(-c4ccc(-c5nc([C@@H]6C[C@H](C)CN6C(=O)[C@@H](NC(=O)OC)C(C)C)[nH]c5Cl)cc4)c(OC(F)(F)F)c3)cn2)C[C@@H]1C [Example 4-12]	D (D represents pEC50>10 (EC50<0.1 nM))	D (D represents pEC50>10 (EC50<0.1 nM))		
COC(=O)N[C@H](C(=O)N1C[C@@H](OC)C[C@H]1c1nc(-c2ccc(-c3ccc(C(=O)Nc4ccc(N5CCN(C(=O)C(C)(C)C)C[C@H]5C)nc4)cc3OC(F)(F)F)cc2)c[nH]1)C1CCOCC1 [Example 22-12]	D (D represents pEC50>10 (EC50<0.1 nM))	D (D represents pEC50>10 (EC50<0.1 nM))		
COC(=O)N[C@H](C(=O)N1C[C@@H](C)C[C@H]1c1nc(-c2ccc(-c3cc(Cl)c(C(=O)Nc4ccc(N5CCN(C(=O)C(C)(C)C)C[C@@H]5C)nc4)cc3OC(F)(F)F)cc2)c[nH]1)C1CCOCC1 [24-1]	D (D represents pEC50>10 (EC50<0.1 nM))	C (C represents pEC50 between and 9 and about 10, (EC50 between 1 nM and 0.1 nM))		
COC(=O)N[C@H](C(=O)N1C[C@@H](C)C[C@H]1c1nc(-c2ccc(-c3cc(Cl)c(NC(=O)c4ccc(N5CCN(C(=O)C(C)(C)F)C[C@H]5C)nc4)cc3OC(F)(F)F)cc2)c[nH]1)C(C)C [Example 1-96]	D (D represents pEC50>10 (EC50<0.1 nM))	D (D represents pEC50>10 (EC50<0.1 nM))		
COC(=O)N[C@H](C(=O)N1C[C@@H](C)C[C@H]1c1nc(-c2ccc(-c3cc(Cl)c(NC(=O)c4ccc(N5CCN(C(=O)C(C)(C)CO)C[C@H]5C)nc4)cc3OC(F)(F)F)cc2)c[nH]1)C1CCOCC1 [Example 13-19]			< 0.1 nM	< 0.1 nM
COC(=O)N[C@H](C(=O)N1C[C@@H](C)C[C@H]1c1nc(-c2ccc(-c3ccc(C(=O)Nc4ccc(N5CCN(C(=O)[C@]6(C)CCCN6C(=O)OC(C)C)C[C@H]5C)nc4)cc3OC(F)(F)F)cc2)c[nH]1)C(C)C [Example 4-5]	D (D represents pEC50>10 (EC50<0.1 nM))	D (D represents pEC50>10 (EC50<0.1 nM))		
COCC1(C(=O)N2CCN(c3ccc(C(=O)Nc4cc(OC(F)(F)F)c(-c5ccc(-c6c[nH]c([C@@H]7C[C@H](OC)CN7C(=O)[C@@H](NC(=O)OC)C7CCOCC7)n6)cc5)cc4Cl)cn3)[C@H](C)C2)CCC1 [Example 28-22]	D (D represents pEC50>10 (EC50<0.1 nM))	D (D represents pEC50>10 (EC50<0.1 nM))		
